Columns and labels:
[1] = target: 2-acylglycerol O-acyltransferase 1 (human) (UniProt Q96PD6); assay: Inhibition of human recombinant MGAT1 expressed in insect cell membrane using 2-oleyl-sn-glycerol and [14C]-oleyl-coenzyme A as substrate after 10 to 15 mins by liquid scintillation counting analysis
[2] = target: 2-acylglycerol O-acyltransferase 2 (human) (UniProt Q3SYC2); assay: Inhibition of human recombinant MGAT2 expressed in insect cell membrane using 2-oleoyl-sn-glycerol and oleoyl coenzyme A as substrate after 40 mins by Ellmans assay based rapidfire LCMS analysis
[3] = Inhibition of human recombinant MGAT3 expressed in insect cell membrane using 2-oleyl-sn-glycerol and [14C]-oleyl-coenzyme A as substrate after 10 to 15 mins by liquid scintillation counting analysis
[4] = target: 2-acylglycerol O-acyltransferase 2 (mouse); assay: Inhibition of mouse recombinant MGAT2 expressed in insect cell membrane using 2-oleoyl-sn-glycerol and oleoyl coenzyme A as substrate after 40 mins by Ellmans assay based rapidfire LCMS analysis

2-acylglycerol O-acyltransferase 1 (human), sequence (Q96PD6 whole entry, looked up): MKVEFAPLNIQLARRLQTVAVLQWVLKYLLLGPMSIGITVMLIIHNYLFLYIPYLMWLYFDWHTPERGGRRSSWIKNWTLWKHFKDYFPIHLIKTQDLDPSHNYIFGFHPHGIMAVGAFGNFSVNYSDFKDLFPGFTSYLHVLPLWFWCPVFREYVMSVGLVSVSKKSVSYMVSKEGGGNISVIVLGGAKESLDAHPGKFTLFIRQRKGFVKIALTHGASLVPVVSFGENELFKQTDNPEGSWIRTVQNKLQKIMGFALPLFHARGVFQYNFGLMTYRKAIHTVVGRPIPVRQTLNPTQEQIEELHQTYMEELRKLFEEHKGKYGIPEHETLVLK
2-acylglycerol O-acyltransferase 2 (human), sequence (Q3SYC2 whole entry, looked up): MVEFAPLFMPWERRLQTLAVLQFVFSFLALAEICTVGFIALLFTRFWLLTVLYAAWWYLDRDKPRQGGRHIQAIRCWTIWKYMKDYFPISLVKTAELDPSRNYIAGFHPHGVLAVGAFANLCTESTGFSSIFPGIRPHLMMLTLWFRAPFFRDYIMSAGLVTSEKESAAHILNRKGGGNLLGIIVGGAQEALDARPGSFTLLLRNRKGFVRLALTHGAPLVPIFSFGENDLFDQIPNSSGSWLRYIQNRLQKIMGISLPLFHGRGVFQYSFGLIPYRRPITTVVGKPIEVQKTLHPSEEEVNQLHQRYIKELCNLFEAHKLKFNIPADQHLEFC

| SMILES | IC50 [2] [nM] | other results |
| --- | --- | --- |
| CCC1(C)NC(=O)c2cc(S(=O)(=O)Nc3ccc(OC)cc3)ccc2NC1=O (stereo unspecified) |  | IC50 [1]: 32 nM |
| CCC1(C)NC(=O)c2cc(S(=O)(=O)Nc3ccccc3)ccc2NC1=O (stereo unspecified) |  | IC50 [1]: 501 nM |
| CCC1(C)C(=O)Nc2ccc(S(=O)(=O)Nc3ccc(F)cc3F)cc2C(=O)N1C (stereo unspecified) | 7940 | IC50 [4]: 631 nM |
| CCC1(C)NC(=O)c2cc(S(=O)(=O)Nc3ccc(Cl)cc3)ccc2N(C)C1=O (stereo unspecified) |  | IC50 [1]: 398 nM |
| CCC1(C)NC(=O)c2cc(S(=O)(=O)N(C)c3ccccc3)ccc2NC1=O (stereo unspecified) | > 100000 |  |
| CCC1(C)NC(=O)c2cc(NS(=O)(=O)c3ccccc3)ccc2NC1=O (stereo unspecified) | > 100000 |  |
| O=C(Nc1ccc(Cl)cc1)c1ccc2c(c1)C(=O)NC1(CCC1)C(=O)N2 | > 100000 |  |
| CC1(C)COc2ccc(S(=O)(=O)Nc3ccc(Cl)cc3)cc2C(=O)N1 | 2000 |  |
| CCC1(CC)CNc2ccc(S(=O)(=O)Nc3ccc(F)cc3F)cc2CN1 | 316 |  |
| CCC1NC(=O)c2cc(S(=O)(=O)Nc3ccccc3)ccc2NC1=O (stereo unspecified) | 5010 |  |
| CCC1(C)NC(=O)c2cc(S(=O)(=O)Nc3cccc(Cl)c3)ccc2NC1=O (stereo unspecified) | 2000 |  |
| CCC1(C)NC(=O)c2cc(S(=O)(=O)NCc3ccccc3)ccc2NC1=O (stereo unspecified) | 7940 |  |
| CCC1(C)NC(=O)c2cc(S(=O)(=O)NC3CCCCC3)ccc2NC1=O (stereo unspecified) | 5010 |  |

Further molecules by falling IC50 [2], results first:

| IC50 [2] [nM] | SMILES | other results |
| --- | --- | --- |
| 251 | CCC1(CC)NCc2cc(S(=O)(=O)Nc3ccc(F)cc3F)ccc2NC1=O |  |
| 79 | O=C1NC2(CCC2)C(=O)Nc2ccc(S(=O)(=O)Nc3ccc(Cl)cc3)cc21 |  |
| 63 | CCC1(C)NC(=O)c2cc(S(=O)(=O)Nc3ccccc3Cl)ccc2NC1=O (stereo unspecified) | IC50 [1]: 158 nM |
| 50 | O=C1NC2(CCCC2)C(=O)Nc2ccc(S(=O)(=O)Nc3ccc(Cl)cc3)cc21 |  |
| 50 | CCCC1(C)NC(=O)c2cc(S(=O)(=O)Nc3ccc(F)cc3F)ccc2NC1=O (stereo unspecified) |  |
| 25 | CCC1(C)NC(=O)c2cc(S(=O)(=O)Nc3ccc(Cl)cc3)ccc2NC1=O (stereo unspecified) | IC50 [3]: 398 nM; IC50 [1]: 50 nM; IC50 [4]: 4 nM |
| 3.2 | CCC1(CC)NC(=O)c2cc(S(=O)(=O)Nc3ccc(F)cc3F)ccc2NC1=O |  |
| 1.6 | CCC1(CC)CNc2ccc(S(=O)(=O)Nc3ccc(F)cc3F)cc2C(=O)N1 |  |

Reference: BindingDB's records for doi:10.1016/j.bmcl.2013.02.084 (Astrazeneca, 2013)
